Reference: article PMC10600239, “Selective MCL-1 inhibitor ABBV-467 is efficacious in tumor models but is associated with cardiac troponin increases in patients” (Communications Medicine, 2023)

Tests used:
OCI-AML2 xenografts = experiment: OCI-AML2 xenograft efficacy (tumor volume, body weight); details: for tumor response: for 20 days post-treatment
Experimental: All animal studies were conducted in accordance with the guidelines approved by the Institutional Animal Care and Use Committees of AbbVie. The research protocol was approved by In Vivo Pharmacology at AbbVie prior to study initiation but was not publicly registered or disclosed. Female C.B-17 SCID-beige mice (AMO-1, OPM-2, NCI-H929, and OCI-AML2 xenografts) and female NSG mice (MV4-11-Red.Fluc systemic) were purchased from Charles River Laboratories (Wilmington, MA). Animals were housed in a light cycle-controlled room with HEPA filtration at 22 °C. Animals had nesting and climbing cage topper as the primary environmental enrichment. Animals were inoculated subcutaneously in the right flank with 5 × 10^6 (AMO-1, OPM-2, NCI-H929, and OCI-AML2) or intravenous (IV) with 5 × 10^6 (MV4-11-Red.Fluc). The inoculation volume (0.2 mL) comprised a 50:50 mixture of cells in growth media and Matrigel (BD Biosciences) for subcutaneous injections and 100% phosphate-buffered saline for IV administration. […] Electronic calipers were used to measure the length and width of each tumor 2 to 3 times per week. Tumor volume was estimated by applying the following equation: volume = length × width^2/2. All groups remained blinded during measurements and dosing; only veterinary staff were aware of group identity. When tumors reached approximately 200 mm^3, mice were randomized by match and distributed into treatment and control groups. All xenograft trials were conducted using 5 to 10 mice per group, and all mice were ear tagged and monitored individually throughout the studies.
For combination studies, all compounds were administered within 30 min of each other.

[1] = 4-week (5-dose) IV infusion toxicity study with 4-week recovery; details: rats
Experimental: range-finding studies, and 4-we ek (5-dose) with recovery GLP studies in rats and dogs. For all studies, test item was
administered once weekly by 30 -minute IV infusion. Standard GLP endpoints were assessed including in- life (body weights,
clinical observations, eye exams), electro cardiograms (dog s only), clinical pathology (hematology, clinical chemistry, and
coagulation) and anatomic pathology (macroscopic and mic roscopic observations and organ weights).
Study design was generally in compliance with FDA Redbook
Guidance IV.C. 3.a. and IV.C.3. b. sections on short-term toxicity studies with rodents and non- rodents, respectively (viz.
Studies were appr oved by the animal use committee of Charles River Laboratories, Mattawan, MI. No animals or
data were excluded from analysis. Healthy dogs, as determined by veterinary physical examination and clinical pathology,
were randomized between dose groups using laboratory information management softw are.

Kv11.1 (hERG) = Kv11.1 (hERG) (Homo sapiens, UniProt Q12809); experiment: in vitro; details: CHO cells expressing human Kv11.1 (hERG)
OPM-2 xenografts = experiment: OPM-2 xenograft efficacy (tumor volume, body weight); format: in vivo, mouse; details: 6.25 mg/kg IV once weekly for 3 weeks
Experimental: All animal studies were conducted in accordance with the guidelines approved by the Institutional Animal Care and Use Committees of AbbVie. The research protocol was approved by In Vivo Pharmacology at AbbVie prior to study initiation but was not publicly registered or disclosed. Female C.B-17 SCID-beige mice (AMO-1, OPM-2, NCI-H929, and OCI-AML2 xenografts) and female NSG mice (MV4-11-Red.Fluc systemic) were purchased from Charles River Laboratories (Wilmington, MA). Animals were housed in a light cycle-controlled room with HEPA filtration at 22 °C. Animals had nesting and climbing cage topper as the primary environmental enrichment. Animals were inoculated subcutaneously in the right flank with 5 × 10^6 (AMO-1, OPM-2, NCI-H929, and OCI-AML2) or intravenous (IV) with 5 × 10^6 (MV4-11-Red.Fluc). The inoculation volume (0.2 mL) comprised a 50:50 mixture of cells in growth media and Matrigel (BD Biosciences) for subcutaneous injections and 100% phosphate-buffered saline for IV administration. All cell lines used in this publication were authenticated using IDEXX for STR profiling as well as their IMPACT and human IMPACT panels for pathogen screening. Electronic calipers were used to measure the length and width of each tumor 2 to 3 times per week. Tumor volume was estimated by applying the following equation: volume = length × width^2/2. All groups remained blinded during measurements and dosing; only veterinary staff were aware of group identity. When tumors reached approximately 200 mm^3, mice were randomized by match and distributed into treatment and control groups. All xenograft trials were conducted using 5 to 10 mice per group, and all mice were ear tagged and monitored individually throughout the studies. Any animal with a tumor above 2000 mm^3 or 15% loss in body weight was euthanized and removed from the study. Tumor burden in the systemic MV4-11-Red.Fluc experiment was measured using an IVIS® spectrum from PerkinElmer by taking the total photon flux of the entire dorsal side of an individual mouse. Ten minutes prior to imaging, animals received intraperitoneally 0.2 mL of a 15-mg/mL solution of D-Luciferin (PerkinElmer, Catalog #122799) formulated in 100% phosphate-buffered saline. Animals were anesthetized using 3.5% isoflurane and maintained using 2%. Six days after inoculation, animals were imaged and randomized into vehicle and treatment groups at a total flux of ~1 × 10^8. A background control mouse that was tumor naive but received D-Luciferin was placed in the upper left corner of each image. The total flux from this animal was subtracted from the total flux of each animal present in the image.
For in vivo studies, maximal tumor growth inhibition (TGI) was calculated as the greatest treatment response using the following equation: Maximal TGI = (1 − mean tumor volume of the treated group/mean tumor volume of the vehicle control group) × 100. The tumor growth delay (TGD) percentage was determined as the percentage increase of the median time period for the treatment group to reach an arbitrary tumor volume of 1000 mm^3 relative to the vehicle control group. […] A power analysis was conducted using historical data to determine the number of animals required to yield significance of 0.05 at a 30% difference. There were no animals excluded. Data from experiments in vivo were analyzed using the student’s t-test for TGI values and the Mann–Whitney U test for TGD using Excel and GraphPad Prism. Fisher’s exact test was used to probe significance of differences in response frequency.

[2] = combined with venetoclax and 5-azacitidine

Chain of Kv11.1 (hERG) (Q12809 whole entry): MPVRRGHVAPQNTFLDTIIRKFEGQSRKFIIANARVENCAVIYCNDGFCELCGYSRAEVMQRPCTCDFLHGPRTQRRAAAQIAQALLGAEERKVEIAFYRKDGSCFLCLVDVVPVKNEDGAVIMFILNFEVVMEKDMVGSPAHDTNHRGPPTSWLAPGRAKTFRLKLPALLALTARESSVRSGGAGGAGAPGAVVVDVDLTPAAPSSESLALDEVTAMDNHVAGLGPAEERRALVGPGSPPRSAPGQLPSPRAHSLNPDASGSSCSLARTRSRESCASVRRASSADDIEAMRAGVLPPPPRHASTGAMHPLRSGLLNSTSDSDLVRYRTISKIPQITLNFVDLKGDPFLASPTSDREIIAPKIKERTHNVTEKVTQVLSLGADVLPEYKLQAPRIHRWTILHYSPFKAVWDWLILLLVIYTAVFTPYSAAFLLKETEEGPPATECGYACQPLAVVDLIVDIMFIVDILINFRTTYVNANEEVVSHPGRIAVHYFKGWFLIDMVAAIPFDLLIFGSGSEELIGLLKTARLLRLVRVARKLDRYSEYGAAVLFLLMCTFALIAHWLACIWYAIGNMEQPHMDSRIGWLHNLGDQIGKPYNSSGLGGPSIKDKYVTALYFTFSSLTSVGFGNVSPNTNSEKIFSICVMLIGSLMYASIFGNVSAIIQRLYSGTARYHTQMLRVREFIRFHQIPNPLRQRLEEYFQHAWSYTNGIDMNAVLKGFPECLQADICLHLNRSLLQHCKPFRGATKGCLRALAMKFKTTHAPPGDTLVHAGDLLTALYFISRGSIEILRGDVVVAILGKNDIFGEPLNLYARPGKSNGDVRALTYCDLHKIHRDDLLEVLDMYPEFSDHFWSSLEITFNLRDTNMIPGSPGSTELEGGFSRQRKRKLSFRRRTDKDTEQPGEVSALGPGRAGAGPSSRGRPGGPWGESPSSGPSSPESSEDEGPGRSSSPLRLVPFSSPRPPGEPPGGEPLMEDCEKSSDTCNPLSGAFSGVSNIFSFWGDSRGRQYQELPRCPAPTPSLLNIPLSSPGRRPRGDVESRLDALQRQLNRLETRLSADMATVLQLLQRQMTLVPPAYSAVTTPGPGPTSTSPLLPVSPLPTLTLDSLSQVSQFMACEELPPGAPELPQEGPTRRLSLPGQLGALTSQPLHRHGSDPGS

For Cc1c(Cl)c2c(Cl)c(C)c1-c1c(-c3ccc(F)cc3)sc3ncnc(c13)O[C@@H](C(=O)O)Cc1cc(ccc1OCc1ccnc(-c3ccc(OC[C@H]4COCCO4)cc3)n1)OC[C@@H](CN1CCN(C)CC1)O2 [ABBV-467], the TGD (OCI-AML2 xenografts; combined with venetoclax) was > 878%, the TGI (OCI-AML2 xenografts; combined with venetoclax) was 99% and the TGD (OCI-AML2 xenografts; [2]) was > 878%. The TGI (OCI-AML2 xenografts; [2]) was 99%, the “tumor response” value (OCI-AML2 xenografts; [2]) was “complete tumor regression in all tumors” and the “tumor response” value (OCI-AML2 xenografts; combined with venetoclax) was “complete tumor regression in all tumors”. The “animals remaining tumor free at 120 days post-inoculation” value (OCI-AML2 xenografts; doublet (with venetoclax)) was 62.5%, the “sensitivity of OCI-AML2 tumors” value (OCI-AML2 xenografts; in combination with 5-azacitidine) was “resistant” and the “sensitivity of OCI-AML2 tumors” value (OCI-AML2 xenografts; monotherapy) was “resistant”. For the same compound, the “animals remaining tumor free at 120 days post-inoculation” value (OCI-AML2 xenografts; triplet (with venetoclax and 5-azacitidine)) was 62.5%, the “impact on cardiovascular endpoints (anatomic, clinical pathology, and/or function)” value ([1]; multidose GLP toxicity study) was “No direct impact” and the reversibility of toxicities ([1]; after a 4-week recovery period) was “partially or fully reversible”. For the same compound, the “primary target organs of apoptosis/single-cell necrosis” value ([1]; once-weekly dosing) was “pancreas, liver, gastrointestinal tract, and the hematopoietic system”, the IC50 (Kv11.1 (hERG)) was > 30 µM and the “maximal TGD” value (OPM-2 xenografts) was 82%.
